Data reported in ChEMBL document CHEMBL4715703, “Engineering of a Novel Simplified Human Insulin-Like Peptide 5 Agonist” (J Med Chem, 2016).
Calls of active or inactive are those of the source. No cut-off for these calls is given here. Where a SMILES comes first, the peptide text is derived from it. Bridges are numbered along the chain shown (N, C = ends). Roman numbers before positions name the chains, in order.

What was measured:
[1] = molecular target: T1, Relaxin-3 receptor 2 (Homo sapiens, UniProt Q8TDU9); experiment: Agonist activity at human RXFP4 expressed in CHO-K1 cells assessed as induction of ERK1/2 phosphorylation incubated for 5 mins by Alpha-screen sure-fire assay; assay type: cell-based; settings: filed as agonist
[2] = molecular target: T1, Relaxin-3 receptor 2; experiment: Displacement of europium-labeled Eu(A)-mINSL5 from human RXFP4 expressed in CHO-K1 cells; assay type: cell-based
[3] = molecular target: T1, Relaxin-3 receptor 2; experiment: Agonist activity at human RXFP4 expressed in CHO-K1 cells assessed as reduction in forskolin-induced cAMP production by pCRE beta-galactosidase reporter assay; assay type: functional, cell-based

T1 sequence (Q8TDU9 whole entry): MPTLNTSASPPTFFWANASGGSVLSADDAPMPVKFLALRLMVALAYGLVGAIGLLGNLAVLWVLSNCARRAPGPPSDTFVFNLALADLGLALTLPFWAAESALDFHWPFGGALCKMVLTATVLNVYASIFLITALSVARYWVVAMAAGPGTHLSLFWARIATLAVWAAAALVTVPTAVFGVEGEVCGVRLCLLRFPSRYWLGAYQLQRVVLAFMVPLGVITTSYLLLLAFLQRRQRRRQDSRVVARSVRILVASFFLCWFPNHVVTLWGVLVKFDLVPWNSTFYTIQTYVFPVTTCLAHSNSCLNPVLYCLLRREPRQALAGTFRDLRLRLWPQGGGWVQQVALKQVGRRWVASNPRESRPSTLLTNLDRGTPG

Row | Activity [1] | Ki [2] | EC50 [3] | SMILES
1 | Active | 29.5 nM | 20.9 nM | CC[C@H](C)[C@@H]1NC(=O)[C@H](Cc2ccc(O)cc2)NC(=O)[C@H]([C@@H](C)CC)NC(=O)[C@H](C(C)C)NC(=O)[C@H]([C@@H](C)O)NC(=O)[C@H](CCCNC(=N)N)NC(=O)[C@H]([C@@H](C)CC)NC(=O)[C@H](Cc2ccc(O)cc2)NC(=O)[C@H](CCC(=O)O)NC(=O)[C@H](CC(C)C)NC(=O)CNC(=O)[C@@H](NC(=O)[C@H](CC(C)C)NC(=O)[C@H](CCCNC(=N)N)NC(=O)[C@@H](NC(=O)[C@H](CO)NC(=O)[C@H](CCC(=O)O)NC(=O)[C@@H](N)CCCCN)C(C)C)CSSC[C@H](N)C(=O)N[C@@H]([C@@H](C)O)C(=O)N[C@@H](CC(=O)O)C(=O)NCC(=O)N[C@@H](C)C(=O)N[C@@H](CO)C(=O)N[C@@H](CCSC)C(=O)N[C@@H](CCCCN)C(=O)N[C@@H](CC(=O)O)C(=O)N[C@@H](CC(C)C)C(=O)N[C@@H](CO)C(=O)N[C@@H](C)C(=O)N[C@@H](CC(C)C)C(=O)N[C@H](C(=O)O)CSSC[C@@H](C(=O)N[C@@H](C)C(=O)N[C@@H](CO)C(=O)N[C@@H](CO)C(=O)N[C@@H](CCCNC(=N)N)C(=O)N[C@@H](Cc2c[nH]c3ccccc23)C(=O)O)NC1=O (I: H-KESVRLCGLEYIRTVIYICASSRW-OH / II: H-CTDGASMKDLSALC-OH; disulfide I:7-II:1, I:19-II:14)
2 | Active | 33.1 nM | 4.57 nM | CC[C@H](C)[C@@H]1NC(=O)[C@H](Cc2ccc(O)cc2)NC(=O)[C@H]([C@@H](C)CC)NC(=O)[C@H](C(C)C)NC(=O)[C@H]([C@@H](C)O)NC(=O)[C@H](CCCNC(=N)N)NC(=O)[C@H]([C@@H](C)CC)NC(=O)[C@H](Cc2ccc(O)cc2)NC(=O)[C@H](CCC(=O)O)NC(=O)[C@H](CC(C)C)NC(=O)CNC(=O)[C@@H](NC(=O)[C@H](CC(C)C)NC(=O)[C@H](CCCNC(=N)N)NC(=O)[C@@H](NC(=O)[C@H](CO)NC(=O)[C@H](CCC(=O)O)NC(=O)[C@@H](N)CCCCN)C(C)C)CSSC[C@@H]2NC(=O)[C@@H](NC(=O)[C@H](CC(C)C)NC(=O)[C@@H](NC(=O)[C@H](CCC(N)=O)NC(=O)[C@H](CC(C)C)NC(=O)[C@H](CC(=O)O)NC(=O)C3CCC(=O)N3)[C@@H](C)O)CSSC[C@H](NC(=O)CNC(=O)[C@H](CCC(=O)O)NC(=O)[C@H]([C@@H](C)O)NC2=O)C(=O)N[C@@H](CO)C(=O)N[C@@H](CCSC)C(=O)N[C@@H]([C@@H](C)O)C(=O)N[C@@H](CC(=O)O)C(=O)N[C@@H](CC(C)C)C(=O)N[C@@H](CO)C(=O)N[C@@H](C)C(=O)N[C@@H](CC(C)C)C(=O)N[C@H](C(=O)O)CSSC[C@@H](C(=O)N[C@@H](C)C(=O)N[C@@H](CO)C(=O)N[C@@H](CO)C(=O)N[C@@H](CCCNC(=N)N)C(=O)N[C@@H](Cc2c[nH]c3ccccc23)C(=O)O)NC1=O (stereo partly specified)
